Laboratory results reported in patent US20030113940A1, “Antibodies specific for nanotubes and related methods and compositions” (priority 2001, published 2003).
Like-named read-outs stand apart in the source and are kept apart here. Blank lines part the entries; values can stand above or below the molecule they belong to.

Columns and labels:
[1] = system: human keratinocytes and fibroblasts; conditions: C60 suspension; cited from earlier work
[2] = system: human keratinocytes; conditions: after 6 hours; 32,000 dpm, 1.3 μM; cited from earlier work
[3] = Air sensitivity; assay type: physicochemical
Description: While previous work reported in the literature performed HPLC under aerobic conditions, (see for example Funasaka et al. 1995) these studies determined that anaerobic controls better preserved the fraction of Gd@C82 in solution. […] The fraction containing the Gd@C82 was identified using MS. The solubility of fullerenes in o-xylene is about three times that of toluene and this greatly increases the ratio of fullerenes in solution to those retained on the stationary phase. Therefore, the capacity or amount of fullerenes purified per injection was very large. Each injection contained 2 ml of saturated fullerene o-xylene solution (about 30 mg of fullerenes).

[4] = system: anti-fullerene antibodies binding to 1-RSA; experiment: ELISA inhibition of antibody binding to 1-RSA; design: species or system mouse
Description: After a total of three immunizations at 3-week intervals, confirmation of an immune response was determined by direct ELISA in which polystyrene plates (Corning) were coated with the 1-RSA conjugate (0.5 mg/ml in 0.1 M NaHCO3, pH 9), and binding of preimmune and immune sera were determined by standard procedures. Development was with horseradish peroxidase-labeled goat anti-mouse IgG (Sigma), which tested negative for crossreaction with an IgM preparation. The substrate used was o-phenylenediamine.
(§1) Specificity of the response was determined by two procedures: double diffusion in agar (22) and competitive inhibition, as determined by ELISA using RSA and BSA conjugates of the fullerenes, as well as the oligo lysine derivatives. The fullerenes themselves were not soluble enough in aqueous solutions.
The adenosine conjugate had been synthesized using the same strategy used for the fullerenes, i.e., linkage to the epsilon amino groups of the lysines via an N-hydroxysuccinimide ester derivative.
Specificity also was determined by ELISA inhibition studies (FIG. 6). Binding to 1-RSA was inhibited by 1-RSA, 1-BSA, 1-TG, 3-pentalysine, 2-pentalysine, and 1-pentalysine. Inhibition by 2-pentalysine is additional evidence for nonparticipation of the linker group, i.e., specificity for the C60 moiety. […]

[5] = system: anti-fullerene antibodies (immune serum); experiment: Specificity of the immune response by double diffusion in agar; assay type: binding, mouse
Description: as §1
Specificity of the immune response first was determined by double diffusion in agar.
Confluent lines of precipitation were seen associated with wells 1-5 with a spur between wells 2 and 3, pointing toward 3, i.e., toward 1-BSA. This finding is evidence of a population of antibodies reactive with both 1 and 2, with an additional population specific for the carrier protein of the immunogen, 1-TG. The identity of precipitation with 1 and 2 is evidence for the lack of participation of the linker group, which is missing from 2. […] Anti-TG also could be detected by ELISA (below).

[6] = Atomic force microscopy of antibody binding to SWNT
Description: C60 Antibodies on SWNTs were directly imaged by atomic force microscopy. SWNT ropes on mica were initially imaged, the surface was then exposed to antibody solution, and finally; the same SWNT was imaged again in air. This sequence distinguishes any preexisting surface particles from bound antibodies. Three drops of aqueous SWNT suspension (0.064 mg/mL in Triton 100×surfactant, from Tubes@Rice) were spun onto a freshly cleaved mica surface. One drop of fullerene-specific antibody(0.00125 mg/mL in 10 mM phosphate buffer, 150 mM NaCl, pH 7.3) was then deposited onto the surface. Liquid was removed by glass piper after 8 min, and the sample was dried in air. The sample was then washed with 60 drops of water while spinning to remove weakly bound, physisorbed antibody layers. The same SWNT was then imaged in FIG. 24. A significant number of objects are adsorbed on the nanotube, in previously clean regions, and on the mica substrate. […] The mica antibody images are similar in height, width, and dimpled appearance to those previously reported for monoclonal mouse IgG1 on mica (10).
In a separate experiment, we mixed an aqueous SWNT suspension with an anti-fullerene antibody solution and then imaged the SWNTs on mica. One drop of antibody solution (0.25 mg/mL) was mixed with 5 mL of SWNT suspension (0.064 mg/ml) and cooled at 5° C. for 2 h. Three drops of this mixture were spun on a freshly cleaved […] and imaged without washing.

Molecule: c12c3c4c5c1c1c6c7c2c2c8c3c3c9c4c4c%10c5c5c1c1c6c6c%11c7c2c2c7c8c3c3c8c9c4c4c9c%10c5c5c1c1c6c6c%11c2c2c7c3c3c8c4c4c9c5c1c1c6c2c3c41 [Compound C60, fullerene-C60]
effect on the rate of thymidine uptake [1]: no effect
applied radioactivity taken up by the keratinocytes [2]: approximately 50%

Molecule: Gd@C82(OH)x
air sensitivity [3]: does not appear to be air sensitive

Further lines, with some results ahead:

inhibition of binding to 1-RSA (ELISA) [4]: No inhibition
Molecule: bovine thyroglobulin [TG]
precipitation in double diffusion in agar ([5]; TG solution diluted 5-fold): line of precipitation was seen
precipitation in double diffusion in agar ([5]; undiluted antigen solutions): no visible precipitate

inhibition of binding to 1-RSA (ELISA) [4]: No inhibition
Molecule: rabbit serum albumin [RSA]

binding of antibody to SWNT (AFM image) [6]: antibodies on the nanotube and on mica
binding of antibody to SWNT (AFM image) ([6]; listed as anti-fullerene/anti-nanotube antibody): bound to a nanotube
binding of antibody to SWNT (AFM image) ([6]; listed as monoclonal IgG C60-specific antibody): specifically binds
B1: fullerene-specific antibody: monoclonal antibody produced by hybridoma 1-10F-8A (ATCC PTA-279) (antibody, V domains shown)
VH: MGCSWGMLFLLSITAGVHCQVHLQQSGPELVRPGASVKISCKTSGYVFSSSWMNWVKQRPGQGLKWIGRIYPGNGNTNYNEKFKGKATLTADKSSNTAYMQLSSLTSVDSAVYFCATSSAYWGQGTLLTVSA
VL: DIQMTQTTSSLSASLGDRVTFSCSASQDINNYLNWYQQKPDGTIKLLIYYTSSLRSGVPSRFSGSGSGTDYSLTINNLEPEDIATYFCQQYSRLPFTFGSGTKLEIKRK
modifications: Mouse [murine]; Mouse
